# Tests used:
# Assay type in all cases: in vivo
# [1] = system: sedge, umbrella (small-flower umbrella sedge, Cyperus difformis); assay: Test B flooded paddy test, plant response rating 0-100; conditions: Flood, 250 g ai/ha; scale 0 to 100 (0 no effect, 100 complete control); 13 to 15 days
# Summary of the method: (§1)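 In-water treatment: compound dosed into 3 cm flood over soil, water level unchanged throughout. Controls run alongside; visual assessment at day 13–15.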
# rice (Oryza sativa) = assay: as above; conditions: Flood, 250 g ai/ha; scale 0 to 100 (0 no effect, 100 complete control); 13 to 15 days
# Summary of the method: as §1
# [2] = system: ducksalad (Heteranthera limosa); assay: as above; conditions: Flood, 250 g ai/ha; scale 0 to 100 (0 no effect, 100 complete control); 13 to 15 days
# Summary of the method: as §1
# [3] = system: surinam grass (Brachiaria decumbens); assay: Test C postemergence greenhouse test, plant response rating 0-100; conditions: for Plant response rating, Surinam Grass: 250 g ai/ha, scale 0 to 100
# Summary of the method: (§2)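 First, plants were raised in a sphagnum peat, vermiculite and nutrient medium to 1–4 leaves. Next, formulated test compounds were applied over the foliage. Finally, after 13–15 greenhouse days, injury was compared with controls and scored 0–100.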
# [4] = system: canarygrass (Phalaris minor); assay: as above; conditions: for Plant response rating, Canarygrass: 250 g ai/ha, scale 0 to 100
# Summary of the method: as §2
# [5] = system: bermudagrass (Cynodon dactylon); assay: as above; conditions: for Plant response rating, Bermudagrass: scale 0 to 100
# Summary of the method: as §2
# [6] = system: green foxtail (Setaria viridis); assay: as above; conditions: for Plant response rating, Foxtail, Green: 250 g ai/ha, scale 0 to 100
# Summary of the method: as §2
# [7] = system: woolly cupgrass (Eriochloa villosa); assay: as above; conditions: for Plant response rating, Cupgrass, Woolly: 250 g ai/ha, scale 0 to 100
# Summary of the method: as §2
# [8] = system: deadnettle (henbit deadnettle, Lamium amplexicaule); assay: as above; conditions: for Plant response rating, Deadnettle: 250 g ai/ha, scale 0 to 100
# Summary of the method: as §2
# [9] = system: cocklebur (common cocklebur, Xanthium strumarium); assay: as above; conditions: for Plant response rating, Cocklebur: 250 g ai/ha, scale 0 to 100
# Summary of the method: as §2
# [10] = system: goosegrass (Eleusine indica); assay: as above; conditions: for Plant response rating, Goosegrass: 250 g ai/ha, scale 0 to 100
# Summary of the method: as §2
# [11] = system: downy bromegrass (Bromus tectorum); assay: as above; conditions: for Plant response rating, Bromegrass, Downy: scale 0 to 100
# Summary of the method: as §2
# [12] = system: barnyardgrass (Echinochloa crus-galli); assay: Test B flooded paddy test, plant response rating 0-100; conditions: Flood, 250 g ai/ha; scale 0 to 100 (0 no effect, 100 complete control); 13 to 15 days
# Summary of the method: as §1
# [13] = system: barnyardgrass (Echinochloa crus-galli); assay: Test C pre-/postemergence greenhouse test, plant response rating 0-100
# Summary of the method: (§3)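 Pre-emergence soil and post-emergence foliar sprays were applied simultaneously to seeded loam–sand pots and to 1–4-leaf plants in peat medium; greenhouse holding lasted 13–15 days, then plants were scored visually from 0 (no effect) to 100 (complete control).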
# [14] = system: oilseed rape (Brassica napus); assay: as above
# Summary of the method: as §3
# [15] = system: waterhemp (common waterhemp, Amaranthus rudis); assay: as above
# Summary of the method: as §3
# [16] = system: waterhemp_RES2, (ALS & HPPD resistant common waterhemp, Amaranthus rudis); assay: Test E postemergence greenhouse test, plant response rating 0-100; conditions: scale 0 to 100
# Experimental: At the same time, plants from these crop and weed species and also waterhemp_RES1, (ALS & Triazine resistant common waterhemp, Amaranthus rudis), and waterhemp_RES2, (ALS & HPPD resistant common waterhemp, Amaranthus rudis) were planted in pots containing Redi-Earth® planting medium (Scotts Company, 14111 Scottslawn Road, Marysville, Ohio 43041) comprising spaghnum peat moss, vermiculite, wetting agent and starter nutrients were treated with postemergence applications of test chemicals formulated in the same manner. Plants ranged in height from 2 to 18 cm for postemergence treatments (1- to 4-leaf stage).
# Treated plants and controls were maintained in a greenhouse for 14 to 21 days, after which time all species were compared to controls and visually evaluated. Plant response ratings, summarized in Table E, are based on a scale of 0 to 100 where 0 is no effect and 100 is complete control. A dash (-) response means no test result.
# [17] = Postemergence, 250 g ai/ha, scale 0 to 100
# [18] = Postemergence, 500 g ai/ha, scale 0 to 100
smiles,measurement,setting,value
Cn1cc(C(=NN2CCCC2)c2ccccc2)c(-c2cc(Cl)c(Cl)c(Cl)c2)n1 [Compound 25],"Plant response rating, Sedge, Umbrella",[1],70
same,"Plant response rating, Rice",rice (Oryza sativa),0
same,"Plant response rating, Ducksalad",[2],0
same,"Plant response rating (0 to 100), Surinam Grass",[3]; 62 g ai/ha,0
same,"Plant response rating (0 to 100), Surinam Grass",[3]; 125 g ai/ha,0
same,"Plant response rating, Surinam Grass",[3],0
same,"Plant response rating (0 to 100), Canarygrass",[4]; 31 g ai/ha,0
same,"Plant response rating (0 to 100), Canarygrass",[4]; 62 g ai/ha,0
same,"Plant response rating (0 to 100), Canarygrass",[4]; 125 g ai/ha,0
same,"Plant response rating, Canarygrass",[4],5
same,"Plant response rating (0 to 100), Bermudagrass",[5]; 31 g ai/ha,0
same,"Plant response rating (0 to 100), Bermudagrass",[5]; 62 g ai/ha,0
same,"Plant response rating, Bermudagrass",[5]; 125 g ai/ha,0
same,"Plant response rating, Bermudagrass",[5]; 250 g ai/ha,0
same,"Plant response rating (0 to 100), Foxtail, Green",[6]; 31 g ai/ha,0
same,"Plant response rating (0 to 100), Foxtail, Green",[6]; 62 g ai/ha,0
same,"Plant response rating (0 to 100), Foxtail, Green",[6]; 125 g ai/ha,5
same,"Plant response rating, Foxtail, Green",[6],15
same,"Plant response rating (0 to 100), Cupgrass, Woolly",[7]; 31 g ai/ha,0
same,"Plant response rating (0 to 100), Cupgrass, Woolly",[7]; 62 g ai/ha,0
same,"Plant response rating (0 to 100), Cupgrass, Woolly",[7]; 125 g ai/ha,0
same,"Plant response rating, Cupgrass, Woolly",[7],0
same,"Plant response rating (0 to 100), Deadnettle",[8]; 31 g ai/ha,0
same,"Plant response rating (0 to 100), Deadnettle",[8]; 62 g ai/ha,0
same,"Plant response rating (0 to 100), Deadnettle",[8]; 125 g ai/ha,0
same,"Plant response rating, Deadnettle",[8],0
same,"Plant response rating (0 to 100), Cocklebur",[9]; 31 g ai/ha,5
same,"Plant response rating (0 to 100), Cocklebur",[9]; 62 g ai/ha,15
same,"Plant response rating (0 to 100), Cocklebur",[9]; 125 g ai/ha,15
same,"Plant response rating, Cocklebur",[9],25
same,"Plant response rating (0 to 100), Goosegrass",[10]; 31 g ai/ha,0
same,"Plant response rating (0 to 100), Goosegrass",[10]; 62 g ai/ha,0
same,"Plant response rating (0 to 100), Goosegrass",[10]; 125 g ai/ha,0
same,"Plant response rating, Goosegrass",[10],0
same,"Plant response rating (0 to 100), Bromegrass, Downy",[11]; 31 g ai/ha,0
same,"Plant response rating (0 to 100), Bromegrass, Downy",[11]; 62 g ai/ha,0
same,"Plant response rating, Bromegrass, Downy",[11]; 125 g ai/ha,0
same,"Plant response rating, Bromegrass, Downy",[11]; 250 g ai/ha,0
CCOC(OCC)(c1cccs1)c1c[nH]nc1-c1cc(Cl)cc(Cl)c1 [Compound 27],"Plant response rating, Barnyardgrass",[12],0
same,"Plant response rating, Sedge, Umbrella",[1],0
same,"Plant response rating, Rice",rice (Oryza sativa),0
same,"Plant response rating, Ducksalad",[2],0
same,"Plant response rating (0 to 100), Barnyardgrass","[13]; Postemergence, 62 g ai/ha",0
same,"Plant response rating, Barnyardgrass","[13]; Postemergence, 125 g ai/ha, scale 0 to 100",0
same,"Plant response rating, Barnyardgrass",[13]; [17],0
same,"Plant response rating, Barnyardgrass",[13]; [18],10
same,"Plant response rating, Barnyardgrass","[13]; Preemergence, 62 g ai/ha",0
same,"Plant response rating, Barnyardgrass","[13]; Preemergence, 125 g ai/ha",0
same,"Plant response rating, Barnyardgrass","[13]; Preemergence, 250 g ai/ha",0
same,"Plant response rating, Barnyardgrass","[13]; Preemergence, 500 g ai/ha",0
same,"Plant response rating (0 to 100), Oilseed Rape","[14]; Postemergence, 62 g ai/ha",45
same,"Plant response rating (0 to 100), Oilseed Rape","[14]; Postemergence, 125 g ai/ha",50
same,"Plant response rating, Oilseed Rape",[14]; [17],50
same,"Plant response rating, Oilseed Rape",[14]; [18],45
same,"Plant response rating, Oilseed Rape","[14]; Preemergence, 62 g ai/ha",70
same,"Plant response rating, Oilseed Rape","[14]; Preemergence, 125 g ai/ha",90
same,"Plant response rating, Oilseed Rape","[14]; Preemergence, 250 g ai/ha",85
same,"Plant response rating, Oilseed Rape","[14]; Preemergence, 500 g ai/ha",90
same,"Plant response rating (0 to 100), Waterhemp","[15]; Postemergence, 62 g ai/ha",95
same,"Plant response rating (0 to 100), Waterhemp","[15]; Postemergence, 125 g ai/ha",98
same,"Plant response rating, Waterhemp",[15]; [17],98
same,"Plant response rating, Waterhemp",[15]; [18],100
same,"Plant response rating, Waterhemp","[15]; Preemergence, 62 g ai/ha",100
same,"Plant response rating, Waterhemp","[15]; Preemergence, 125 g ai/ha",100
same,"Plant response rating, Waterhemp","[15]; Preemergence, 250 g ai/ha",100
same,"Plant response rating, Waterhemp","[15]; Preemergence, 500 g ai/ha",100
"Cn1cc(C(=O)c2ccccc2)c(-c2cc(Cl)cc(Cl)c2)n1 [Compound 54, [3-(3,5-dichlorophenyl)-1-methyl-1H-pyrazol-4-yl]phenylmethanone]","Plant response rating, Waterhemp_RES2",[16]; 62 g ai/ha,80
same,"Plant response rating, Waterhemp_RES2",[16]; 125 g ai/ha,85
same,"Plant response rating, Waterhemp_RES2",[16]; 250 g ai/ha,85
same,"Plant response rating (0 to 100), Surinam Grass",[3]; 62 g ai/ha,0
same,"Plant response rating (0 to 100), Surinam Grass",[3]; 125 g ai/ha,0
same,"Plant response rating, Surinam Grass",[3],0
same,"Plant response rating (0 to 100), Canarygrass",[4]; 31 g ai/ha,0
same,"Plant response rating (0 to 100), Canarygrass",[4]; 62 g ai/ha,0
same,"Plant response rating (0 to 100), Canarygrass",[4]; 125 g ai/ha,0
same,"Plant response rating, Canarygrass",[4],0
same,"Plant response rating (0 to 100), Bermudagrass",[5]; 31 g ai/ha,0
same,"Plant response rating (0 to 100), Bermudagrass",[5]; 62 g ai/ha,0
same,"Plant response rating (0 to 100), Bermudagrass",[5]; 125 g ai/ha,0
same,"Plant response rating, Bermudagrass",[5]; 250 g ai/ha,0
same,"Plant response rating (0 to 100), Foxtail, Green",[6]; 31 g ai/ha,0
same,"Plant response rating (0 to 100), Foxtail, Green",[6]; 62 g ai/ha,0
same,"Plant response rating (0 to 100), Foxtail, Green",[6]; 125 g ai/ha,0
same,"Plant response rating, Foxtail, Green",[6],0
same,"Plant response rating (0 to 100), Cupgrass, Woolly",[7]; 31 g ai/ha,0
same,"Plant response rating (0 to 100), Cupgrass, Woolly",[7]; 62 g ai/ha,0
same,"Plant response rating (0 to 100), Cupgrass, Woolly",[7]; 125 g ai/ha,0
same,"Plant response rating, Cupgrass, Woolly",[7],0
same,"Plant response rating (0 to 100), Deadnettle",[8]; 31 g ai/ha,0
same,"Plant response rating (0 to 100), Deadnettle",[8]; 62 g ai/ha,0
same,"Plant response rating (0 to 100), Deadnettle",[8]; 125 g ai/ha,0
same,"Plant response rating, Deadnettle",[8],5
same,"Plant response rating (0 to 100), Cocklebur",[9]; 31 g ai/ha,0
same,"Plant response rating (0 to 100), Cocklebur",[9]; 62 g ai/ha,0
same,"Plant response rating (0 to 100), Cocklebur",[9]; 125 g ai/ha,0
same,"Plant response rating, Cocklebur",[9],0
same,"Plant response rating (0 to 100), Goosegrass",[10]; 31 g ai/ha,0
same,"Plant response rating (0 to 100), Goosegrass",[10]; 62 g ai/ha,0
same,"Plant response rating (0 to 100), Goosegrass",[10]; 125 g ai/ha,0
same,"Plant response rating, Goosegrass",[10],0
same,"Plant response rating (0 to 100), Bromegrass, Downy",[11]; 31 g ai/ha,0
same,"Plant response rating (0 to 100), Bromegrass, Downy",[11]; 62 g ai/ha,0
same,"Plant response rating (0 to 100), Bromegrass, Downy",[11]; 125 g ai/ha,0
same,"Plant response rating, Bromegrass, Downy",[11]; 250 g ai/ha,0
same,"Plant response rating, Barnyardgrass","[13]; Preemergence, 62 g ai/ha",0
same,"Plant response rating, Barnyardgrass","[13]; Preemergence, 125 g ai/ha",0
same,"Plant response rating, Barnyardgrass","[13]; Preemergence, 250 g ai/ha",0
same,"Plant response rating, Barnyardgrass","[13]; Preemergence, 500 g ai/ha",0
same,"Plant response rating, Oilseed Rape","[14]; Preemergence, 62 g ai/ha",0
same,"Plant response rating, Oilseed Rape","[14]; Preemergence, 125 g ai/ha",0
same,"Plant response rating, Oilseed Rape","[14]; Preemergence, 250 g ai/ha",0
same,"Plant response rating, Oilseed Rape","[14]; Preemergence, 500 g ai/ha",5
same,"Plant response rating, Waterhemp","[15]; Preemergence, 62 g ai/ha",90
same,"Plant response rating, Waterhemp","[15]; Preemergence, 125 g ai/ha",95
same,"Plant response rating, Waterhemp","[15]; Preemergence, 250 g ai/ha",98
same,"Plant response rating, Waterhemp","[15]; Preemergence, 500 g ai/ha",100
